Experimental data taken from the supplement of paper PMC10307832.

Tests used:
Assay in all cases: relative viability (nuclei count vs DMSO), 5 days (fraction); higher = more cells survive
Midostaurin + Luminespib = compound: CO[C@@H]1[C@H](N(C)C(=O)c2ccccc2)C[C@H]2O[C@]1(C)n1c3ccccc3c3c4c(c5c6ccccc6n2c5c31)C(=O)NC4 [Midostaurin] + CCNC(=O)c1noc(-c2cc(C(C)C)c(O)cc2O)c1-c1ccc(CN2CCOCC2)cc1 [Luminespib] (partner 0.01 µM)
Method in brief: (§1)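 Five library-drug doses in √10 steps were combined with a fixed anchor-drug dose, or a single drug was given alone, by pin tool to lung cancer cell lines in 1536-well plates the day after seeding. Nuclei were stained and counted after 5 days. Relative viability is the nuclei count in treated wells over that in vehicle wells, taken as the median of duplicate plates.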

[1] = compound: COc1cc(-c2nn([C@H]3CC[C@H](N4CCN(C(C)=O)CC4)CC3)c3ncnc(N)c23)ccc1NC(=O)c1cc2ccccc2n1C + COc1cc2c(Oc3ccc(NC(=O)C4(C(=O)Nc5ccc(F)cc5)CC4)cc3F)ccnc2cc1OCCCN1CCOCC1 [Foretinib] (partner 0.25 µM)
Method in brief: as §1

[2] = compound: COc1cc(-c2nn([C@H]3CC[C@H](N4CCN(C(C)=O)CC4)CC3)c3ncnc(N)c23)ccc1NC(=O)c1cc2ccccc2n1C + CS(=O)(=O)N1CCN(Cc2cc3nc(-c4cccc5[nH]ncc45)nc(N4CCOCC4)c3s2)CC1 [Pictilisib] (partner 1 µM)
Method in brief: as §1

[3] = compound: COc1cc(-c2nn([C@H]3CC[C@H](N4CCN(C(C)=O)CC4)CC3)c3ncnc(N)c23)ccc1NC(=O)c1cc2ccccc2n1C + NC(=O)Nc1cc(-c2cccc(F)c2)sc1C(=O)N[C@H]1CCCNC1 [AZD7762] (partner 0.2 µM)
Method in brief: as §1

Midostaurin + Bortezomib = compound: CO[C@@H]1[C@H](N(C)C(=O)c2ccccc2)C[C@H]2O[C@]1(C)n1c3ccccc3c3c4c(c5c6ccccc6n2c5c31)C(=O)NC4 [Midostaurin] + CC(C)C[C@H](NC(=O)[C@H](Cc1ccccc1)NC(=O)c1cnccn1)B(O)O [Bortezomib] (partner 0.002 µM)
Method in brief: as §1

Cell Line	relative viability (Midostaurin + Luminespib; first compound 0.01 µM)	relative viability (Midostaurin + Luminespib; first compound 0.03162 µM)	relative viability (Midostaurin + Luminespib; first compound 0.1 µM)	relative viability (Midostaurin + Luminespib; first compound 0.3162 µM)	relative viability ([1]; first compound 0.0128 µM)	relative viability ([1]; first compound 0.04048 µM)	relative viability ([1]; first compound 0.128 µM)	relative viability ([1]; first compound 1.28 µM)	relative viability ([2]; first compound 0.0128 µM)	relative viability ([2]; first compound 0.04048 µM)	relative viability ([2]; first compound 0.128 µM)	relative viability ([2]; first compound 1.28 µM)	relative viability ([3]; first compound 0.0128 µM)	relative viability ([3]; first compound 0.04048 µM)	relative viability ([3]; first compound 0.128 µM)	relative viability ([3]; first compound 1.28 µM)	relative viability (Midostaurin + Bortezomib; first compound 0.01 µM)	relative viability (Midostaurin + Bortezomib; first compound 0.03162 µM)	relative viability (Midostaurin + Bortezomib; first compound 0.1 µM)	relative viability (Midostaurin + Bortezomib; first compound 0.3162 µM)
NCI-H1975	0.226	0.19	0.123	0.223	0.887	0.912	0.918	0.481	0.322	0.31	0.234	0.149	0.761	0.731	0.632	0.429	0.325	0.513	0.446	0.322
CAL-12T	0.174	0.172	0.212	0.174	1.13	1.06	1.31	1.12	0.392	0.397	0.512	0.281	0.675	0.7	0.49	0.581	1	0.922	0.88	0.796
NCI-H1623	0.526	0.647	0.513	0.632	0.855	0.696	0.763	0.595	–	–	–	–	–	–	–	–	–	–	–	–
HCC-44	–	1.1	0.964	1.11	–	–	–	–	0.675	0.67	0.542	0.542	1.13	1.17	0.981	1.19	0.84	0.881	0.796	0.762
EKVX	0.883	0.868	0.823	0.749	0.881	0.755	0.744	0.575	0.458	0.475	0.401	0.245	0.79	0.691	0.685	0.385	1.01	0.995	0.947	0.9
NCI-H1651	0.905	0.731	0.664	0.66	0.911	0.886	0.969	0.692	0.489	0.525	0.483	0.43	0.466	0.457	0.49	0.397	0.955	1.01	1.02	1.03
NCI-H1944	0.764	0.872	0.67	0.773	0.87	0.786	0.832	0.61	0.362	0.301	0.327	0.285	0.605	0.539	0.485	0.352	–	–	–	–
NCI-H1703	–	–	–	–	0.297	–	0.262	0.167	0.235	0.26	0.222	0.163	0.138	0.114	0.129	0.117	0.427	0.256	0.373	0.153
Calu-6	–	–	–	–	0.905	0.813	0.823	0.659	0.916	0.893	0.826	0.76	–	–	–	–	0.934	0.973	0.96	0.791
EBC-1	–	–	–	–	0.104	0.0846	0.126	0.112	0.407	0.447	0.416	0.393	–	–	–	–	0.756	0.485	0.502	0.427
SW 1573	0.377	0.213	0.308	0.18	0.808	0.869	0.887	0.728	0.496	0.497	0.497	0.362	–	–	–	–	0.966	0.988	1.15	1.05
A-427	0.869	0.905	0.753	0.953	1.03	–	0.988	0.884	0.652	0.127	0.703	0.493	0.76	0.641	0.782	0.727	0.961	0.939	0.992	0.899
NCI-H2347	0.422	0.727	0.366	0.325	0.788	0.781	0.864	0.834	0.754	0.579	0.772	0.414	0.773	0.55	0.64	0.565	0.842	0.95	0.956	0.976
NCI-H1355	0.682	0.762	0.666	0.702	1	0.958	0.988	0.883	0.584	0.295	0.412	0.406	0.75	0.788	0.654	0.619	1.13	1.16	1.31	1.26
NCI-H358	0.241	0.309	0.263	0.298	0.766	0.626	0.685	0.279	0.395	0.331	0.277	0.249	0.496	0.5	0.444	0.225	–	–	–	–
NCI-H2228	0.155	0.163	0.164	0.134	0.92	1.05	0.825	0.622	0.408	0.275	0.337	0.375	–	–	–	–	1.21	1.19	1	0.942
HCC-78	–	–	–	–	0.544	0.733	0.467	0.376	0.23	0.181	0.21	0.196	0.52	0.851	0.52	0.331	0.431	0.45	0.474	0.328
IA-LM	–	–	–	–	1.19	1.1	1.16	0.97	0.345	0.443	0.324	0.334	–	–	–	–	0.85	–	0.946	0.783
COR-L23	0.605	0.644	0.541	0.625	1.08	1.14	0.894	0.981	0.919	0.666	0.801	0.839	–	–	–	–	0.871	0.957	0.936	0.81
NCI-H1793	0.281	0.307	0.169	0.168	0.669	0.809	0.648	0.406	0.424	0.288	0.285	0.311	0.591	0.341	0.326	0.192	–	–	–	–

Cell Line	relative viability (Midostaurin + Luminespib; first compound 0.01 µM)	relative viability (Midostaurin + Luminespib; first compound 0.03162 µM)	relative viability (Midostaurin + Luminespib; first compound 0.1 µM)	relative viability (Midostaurin + Luminespib; first compound 0.3162 µM)	relative viability ([1]; first compound 0.0128 µM)	relative viability ([1]; first compound 0.04048 µM)	relative viability ([1]; first compound 0.128 µM)	relative viability ([1]; first compound 1.28 µM)	relative viability ([2]; first compound 0.0128 µM)	relative viability ([2]; first compound 0.04048 µM)	relative viability ([2]; first compound 0.128 µM)	relative viability ([2]; first compound 1.28 µM)	relative viability ([3]; first compound 0.0128 µM)	relative viability ([3]; first compound 0.04048 µM)	relative viability ([3]; first compound 0.128 µM)	relative viability ([3]; first compound 1.28 µM)	relative viability (Midostaurin + Bortezomib; first compound 0.01 µM)	relative viability (Midostaurin + Bortezomib; first compound 0.03162 µM)	relative viability (Midostaurin + Bortezomib; first compound 0.1 µM)	relative viability (Midostaurin + Bortezomib; first compound 0.3162 µM)
NCI-H2023	0.627	0.753	0.589	0.333	0.802	0.804	0.717	0.535	0.277	0.188	0.212	0.22	–	–	–	–	0.974	0.961	0.963	0.567
COR-L 105	0.597	0.686	0.777	0.621	1.04	1.34	0.994	0.598	0.417	0.427	0.321	0.243	–	–	–	–	0.823	0.804	0.668	0.499
NCI-H520	0.221	0.204	0.235	0.258	0.755	0.731	0.65	0.613	0.293	0.337	0.247	0.216	–	–	–	–	0.657	0.492	0.594	0.596
NCI-H1792	0.399	0.429	0.388	0.446	–	–	–	–	0.237	0.191	0.306	0.354	0.646	0.679	0.632	0.517	0.943	0.949	0.911	0.949
SK-LU-1	0.202	0.199	0.206	0.194	0.769	0.798	0.691	0.376	0.54	0.488	0.498	0.269	–	–	–	–	1.15	1.31	1.36	1.19
NCI-H2342	0.704	0.708	0.738	0.754	0.958	1.11	0.914	0.731	–	–	–	–	0.464	0.422	0.477	0.361	–	–	–	–
NCI-H1299	–	–	–	–	1.13	1.23	1.14	1.08	0.681	0.806	0.668	0.385	–	–	–	–	1.03	0.987	0.95	1.01
NCI-H1650	0.19	0.175	0.187	0.173	1.07	1.45	1.14	0.911	0.548	0.651	0.513	0.547	–	–	–	–	0.214	0.227	0.206	0.213
NCI-H2009	1.05	0.954	0.936	1	1.22	1.12	1.22	0.896	0.783	0.303	0.649	0.578	–	–	–	–	0.882	0.981	0.942	0.809
SW 900	0.192	0.198	0.189	0.151	0.813	0.91	0.843	0.66	–	–	–	–	0.547	0.564	0.612	0.402	–	–	–	–
SK-MES-1	0.785	0.804	0.733	0.336	0.894	1.14	0.986	1	0.343	0.402	0.361	0.221	–	–	–	–	–	–	–	–
NCI-H1648	–	–	–	–	–	–	–	–	–	–	–	–	0.686	0.609	0.75	0.566	–	–	–	–
NCI-H522	1.07	1.51	1.26	1.21	–	–	–	–	–	–	–	–	0.73	0.848	0.909	0.892	–	–	–	–
LK-2	0.191	0.221	0.187	0.199	1.34	1.24	1.05	0.761	0.557	0.543	0.55	0.375	0.485	0.243	0.321	0.188	–	–	–	–
HCC-366	–	–	–	–	0.948	0.841	0.98	0.757	0.09	0.129	0.161	0.141	0.252	0.221	0.246	0.193	1.02	1.04	1.02	1.1
NCI-H1395	0.837	0.702	0.573	0.665	0.975	0.95	0.9	0.72	0.578	0.711	0.512	0.486	0.459	0.394	0.402	0.322	–	–	–	–
A549	–	–	–	–	0.927	0.991	0.969	0.935	0.538	0.63	0.429	0.501	–	–	–	–	–	–	–	–
NCI-H2170	0.628	0.509	0.633	0.767	1.09	1.01	0.991	0.97	0.297	0.353	0.334	0.248	0.914	0.928	0.788	0.6	–	–	–	–
NCI-H661	0.799	0.783	0.924	1.04	1.16	1.13	1.01	1.03	0.39	0.344	0.392	0.254	–	–	–	–	0.742	0.933	0.667	0.72
NCI-H1563	0.505	0.515	0.501	0.492	0.913	0.997	0.936	0.685	0.682	0.641	0.656	0.606	–	–	–	–	0.888	0.937	0.761	0.888
